Test [1] has as its target PIK3CD (Human) (UniProt O00329). Description: Cell-Based Assay. Conditions: rat-1.
Test [2] addresses PIK3CA (human) (UniProt P42336). Kind of test: Enzyme Assay.
For test [3], the target named is PIK3CB (Human) (UniProt P42338). Kind of test: Enzyme Assay.
Test [4] addresses PIK3CD (Human) (UniProt O00329). Description: Enzyme Assay.
Another test addresses PIK3CG (human) (UniProt P48736). Kind of test: Enzyme Assay.
Test [5] concerns the target PIK3CA (human) (UniProt P42336). Description: Cell-Based Assay. Conditions: rat-1.
Test [6] deals with PIK3CA (human), P42336 [H1047R]. Description: Cell-Based Assay. To be noted: detroit562.
The target of test [7] is PIK3CB (Human) (UniProt P42338). Description: Cell-Based Assay. Conditions: rat-1.

SMILES strings stand for the structures. Values joined by “and” are separate entries in the source; they are usually repeats but may differ in a detail not shown here. Identical values can stand only once. Some results are limits rather than exact numbers.

Chain of PIK3CD (Human) (O00329 whole entry, looked up): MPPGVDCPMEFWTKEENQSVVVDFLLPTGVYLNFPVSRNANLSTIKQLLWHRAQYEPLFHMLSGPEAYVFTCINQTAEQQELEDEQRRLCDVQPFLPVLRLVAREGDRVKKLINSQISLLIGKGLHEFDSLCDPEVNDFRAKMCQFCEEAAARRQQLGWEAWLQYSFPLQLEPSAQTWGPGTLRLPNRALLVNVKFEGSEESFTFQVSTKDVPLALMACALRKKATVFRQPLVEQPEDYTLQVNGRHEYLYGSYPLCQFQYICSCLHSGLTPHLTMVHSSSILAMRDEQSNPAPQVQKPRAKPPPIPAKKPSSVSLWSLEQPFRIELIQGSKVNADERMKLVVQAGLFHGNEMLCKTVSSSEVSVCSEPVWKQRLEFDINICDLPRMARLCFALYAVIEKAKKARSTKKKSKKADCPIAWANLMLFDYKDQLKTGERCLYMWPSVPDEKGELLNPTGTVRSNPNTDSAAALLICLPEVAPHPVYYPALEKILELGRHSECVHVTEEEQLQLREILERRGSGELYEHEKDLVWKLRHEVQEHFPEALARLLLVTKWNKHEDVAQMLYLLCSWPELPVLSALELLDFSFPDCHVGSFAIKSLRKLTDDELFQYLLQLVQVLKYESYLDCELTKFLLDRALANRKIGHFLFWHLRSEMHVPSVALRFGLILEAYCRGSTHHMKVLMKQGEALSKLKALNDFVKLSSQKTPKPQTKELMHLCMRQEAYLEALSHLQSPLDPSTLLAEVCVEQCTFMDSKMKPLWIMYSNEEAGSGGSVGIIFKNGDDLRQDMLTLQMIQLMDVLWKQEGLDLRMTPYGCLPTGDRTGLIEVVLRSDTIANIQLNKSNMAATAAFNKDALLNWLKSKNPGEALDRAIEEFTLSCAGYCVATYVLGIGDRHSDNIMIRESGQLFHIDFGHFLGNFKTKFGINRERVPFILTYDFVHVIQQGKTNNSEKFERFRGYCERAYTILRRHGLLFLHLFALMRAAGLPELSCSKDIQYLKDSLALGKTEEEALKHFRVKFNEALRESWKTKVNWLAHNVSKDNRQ
Chain of PIK3CG (human) (P48736 whole entry, looked up): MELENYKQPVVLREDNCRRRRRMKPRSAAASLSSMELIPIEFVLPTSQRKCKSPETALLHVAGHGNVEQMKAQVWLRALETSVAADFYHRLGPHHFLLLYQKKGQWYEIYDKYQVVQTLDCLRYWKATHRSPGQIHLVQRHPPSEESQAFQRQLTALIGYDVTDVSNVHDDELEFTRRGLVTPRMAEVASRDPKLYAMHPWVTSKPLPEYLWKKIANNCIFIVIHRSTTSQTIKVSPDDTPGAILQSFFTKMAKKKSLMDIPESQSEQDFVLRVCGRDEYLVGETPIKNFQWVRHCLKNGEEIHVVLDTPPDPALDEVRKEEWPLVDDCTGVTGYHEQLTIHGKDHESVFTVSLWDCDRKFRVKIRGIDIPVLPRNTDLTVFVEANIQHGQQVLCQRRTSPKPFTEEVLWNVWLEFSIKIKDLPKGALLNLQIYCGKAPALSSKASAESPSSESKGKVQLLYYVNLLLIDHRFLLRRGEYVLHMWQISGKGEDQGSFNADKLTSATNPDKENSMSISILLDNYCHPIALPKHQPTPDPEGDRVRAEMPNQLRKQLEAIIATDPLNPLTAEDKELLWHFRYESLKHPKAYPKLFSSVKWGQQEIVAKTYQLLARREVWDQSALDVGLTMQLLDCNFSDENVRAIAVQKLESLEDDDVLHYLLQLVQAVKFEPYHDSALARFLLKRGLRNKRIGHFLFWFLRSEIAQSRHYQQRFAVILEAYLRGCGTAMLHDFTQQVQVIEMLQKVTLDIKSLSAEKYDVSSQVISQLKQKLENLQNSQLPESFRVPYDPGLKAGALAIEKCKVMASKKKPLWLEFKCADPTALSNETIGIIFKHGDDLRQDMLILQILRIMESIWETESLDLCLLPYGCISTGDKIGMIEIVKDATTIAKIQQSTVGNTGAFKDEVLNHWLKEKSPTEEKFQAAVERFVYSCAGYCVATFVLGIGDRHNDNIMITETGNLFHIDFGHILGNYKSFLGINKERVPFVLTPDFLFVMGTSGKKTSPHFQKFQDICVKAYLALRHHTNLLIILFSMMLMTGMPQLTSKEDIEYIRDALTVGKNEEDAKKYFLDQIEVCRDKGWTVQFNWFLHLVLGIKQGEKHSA
Chain of PIK3CA (human) (P42336 whole entry, looked up): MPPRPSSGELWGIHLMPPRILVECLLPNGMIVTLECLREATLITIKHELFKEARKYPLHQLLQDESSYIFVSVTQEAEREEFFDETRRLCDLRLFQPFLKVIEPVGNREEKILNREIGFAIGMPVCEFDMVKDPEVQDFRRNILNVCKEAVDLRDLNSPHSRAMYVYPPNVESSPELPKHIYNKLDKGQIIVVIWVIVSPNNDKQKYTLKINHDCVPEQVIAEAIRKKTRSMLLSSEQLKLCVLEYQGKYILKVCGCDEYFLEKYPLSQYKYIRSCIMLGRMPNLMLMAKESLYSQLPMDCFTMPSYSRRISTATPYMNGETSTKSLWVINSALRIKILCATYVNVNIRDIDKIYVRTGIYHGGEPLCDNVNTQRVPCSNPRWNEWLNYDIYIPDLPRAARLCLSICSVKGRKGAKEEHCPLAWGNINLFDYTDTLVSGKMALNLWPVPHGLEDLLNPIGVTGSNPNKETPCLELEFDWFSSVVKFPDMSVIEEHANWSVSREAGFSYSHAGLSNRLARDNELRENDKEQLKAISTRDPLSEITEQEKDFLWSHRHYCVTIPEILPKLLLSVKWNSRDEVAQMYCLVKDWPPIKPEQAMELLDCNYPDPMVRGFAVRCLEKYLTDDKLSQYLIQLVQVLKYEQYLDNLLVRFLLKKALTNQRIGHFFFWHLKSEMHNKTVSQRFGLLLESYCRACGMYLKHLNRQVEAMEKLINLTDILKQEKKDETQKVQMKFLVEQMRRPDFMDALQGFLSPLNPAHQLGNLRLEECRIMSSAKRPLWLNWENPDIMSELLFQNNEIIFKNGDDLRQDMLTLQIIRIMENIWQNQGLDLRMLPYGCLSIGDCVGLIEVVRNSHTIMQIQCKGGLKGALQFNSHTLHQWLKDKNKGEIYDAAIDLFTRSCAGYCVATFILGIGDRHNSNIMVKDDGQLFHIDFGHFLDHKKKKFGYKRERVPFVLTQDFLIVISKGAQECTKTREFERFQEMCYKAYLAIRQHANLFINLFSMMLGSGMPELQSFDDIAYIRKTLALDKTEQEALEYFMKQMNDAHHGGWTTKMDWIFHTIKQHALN
Chain of PIK3CA (human), P42336 [H1047R] (P42336 whole entry H1047R, looked up): as the sequence (P42336 whole entry, looked up) above, with H1047R counted along it
Chain of PIK3CB (Human) (P42338 whole entry, looked up): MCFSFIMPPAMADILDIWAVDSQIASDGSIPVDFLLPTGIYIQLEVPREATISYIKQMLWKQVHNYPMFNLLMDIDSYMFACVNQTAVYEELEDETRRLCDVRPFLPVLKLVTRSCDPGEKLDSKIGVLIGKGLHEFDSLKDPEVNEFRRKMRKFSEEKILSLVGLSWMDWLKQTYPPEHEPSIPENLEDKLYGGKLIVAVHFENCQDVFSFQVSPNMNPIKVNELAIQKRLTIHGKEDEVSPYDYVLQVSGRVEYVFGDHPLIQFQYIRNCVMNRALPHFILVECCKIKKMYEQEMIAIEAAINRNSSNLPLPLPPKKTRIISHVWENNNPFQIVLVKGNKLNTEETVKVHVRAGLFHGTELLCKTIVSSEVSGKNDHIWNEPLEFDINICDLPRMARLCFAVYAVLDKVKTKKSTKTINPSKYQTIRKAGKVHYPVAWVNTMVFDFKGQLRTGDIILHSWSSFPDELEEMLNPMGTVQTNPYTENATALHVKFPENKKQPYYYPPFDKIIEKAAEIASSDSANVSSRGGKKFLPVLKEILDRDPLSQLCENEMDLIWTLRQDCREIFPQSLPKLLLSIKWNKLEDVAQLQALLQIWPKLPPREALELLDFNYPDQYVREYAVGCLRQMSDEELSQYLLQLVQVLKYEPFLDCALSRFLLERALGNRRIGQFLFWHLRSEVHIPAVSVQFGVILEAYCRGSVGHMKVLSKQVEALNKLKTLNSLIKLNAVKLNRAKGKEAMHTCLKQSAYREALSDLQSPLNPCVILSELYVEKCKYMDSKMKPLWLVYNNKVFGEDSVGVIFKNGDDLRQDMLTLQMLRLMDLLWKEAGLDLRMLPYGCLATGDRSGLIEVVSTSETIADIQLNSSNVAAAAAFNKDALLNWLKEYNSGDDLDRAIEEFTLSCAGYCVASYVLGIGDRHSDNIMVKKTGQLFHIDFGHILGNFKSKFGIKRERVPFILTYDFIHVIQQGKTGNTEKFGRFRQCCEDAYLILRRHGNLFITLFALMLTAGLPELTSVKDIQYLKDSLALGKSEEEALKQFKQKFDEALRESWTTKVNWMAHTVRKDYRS

The compound `COCCOc1ccc([C@@H]2OC(=O)N(c3cc(-c4cnc(N)nc4C(F)(F)F)nc(N4CCOCC4)n3)[C@H]2CO)cc1` showed an IC50 against PIK3CD (Human) [1] of 4 nM.

With `Nc1cc(C(F)(F)F)c(-c2cc(N3CCN(c4ccccc4)C3=O)nc(N3CCOCC3)n2)cn1`, the IC50 against PIK3CA (human) [2] was 91 nM; on PIK3CB (Human) [3], 236 nM; against PIK3CD (Human) [4] it was 1980 nM; against PIK3CG (human), 7350 nM; at PIK3CA (human) [5], 606 nM; in test [6], 4550 nM and 2810 nM. Moreover, the IC50 on PIK3CB (Human) [7] is 1580 nM; on PIK3CD (Human) [1], 1470 nM.

As for `Nc1ncc(-c2cc(N3C(=O)O[C@@H](c4ccc(OCCO)cc4)[C@@H]3CO)nc(N3CCOCC3)n2)c(C(F)(F)F)n1`, the IC50 against PIK3CB (Human) [7] and against PIK3CD (Human) [1] was below 3 nM throughout.

For `Nc1cc(C(F)(F)F)c(-c2cc(N3CCCCC3=O)nc(N3CCOCC3)n2)cn1`, the IC50 at PIK3CA (human) [2] was 94 nM; on PIK3CB (Human) [3], 237 nM; against PIK3CD (Human) [4] it was 848 nM; on PIK3CG (human), 3360 nM; against PIK3CA (human) [5], 369 nM; in test [6], 4410 nM and 3080 nM. The figures for the IC50 at PIK3CB (Human) [7] and against PIK3CD (Human) [1] were 1540 nM and 1040 nM, respectively.

On to `C[C@H]1[C@H](c2nccs2)OC(=O)N1c1cc(-c2cnc(N)nc2C(F)(F)F)nc(N2CCOCC2)n1`, for which, in test [6], the concentration for half-maximal inhibition (IC50) is 440 nM and 598 nM.

As for `CC[C@H]1[C@H](c2ccc(OC)cc2)OC(=O)N1c1cc(-c2cnc(N)nc2C(F)(F)F)nc(N2CCOCC2)n1`, the IC50 against PIK3CB (Human) [3] was found to be 96 nM; against PIK3CG (human), 5800 nM.

Regarding `Nc1ncc(-c2cc(N3CCOCC3)nc(N3CCOCC3)n2)c(C(F)(F)F)n1`, the figures for the concentration for half-maximal inhibition (IC50) on PIK3CD (Human) [4], at PIK3CG (human) and at PIK3CD (Human) [1] were 24 nM, 315 nM and 139 nM, respectively.

Take `Nc1cc(C(F)(F)F)c(-c2cc(N3CCC(=O)CC3)nc(N3CCOCC3)n2)cn1`: the IC50 on PIK3CA (human) [2] came out at 327 nM; on PIK3CB (Human) [3] it was 1070 nM; on PIK3CD (Human) [4], 1220 nM; at PIK3CG (human) it was 4460 nM; on PIK3CA (human) [5] it was 1730 nM; in test [6] it was 3300 nM. In addition, the figures for the IC50 against PIK3CB (Human) [7] and against PIK3CD (Human) [1] were 5310 nM and 6540 nM, respectively.

As to `Nc1ncc(-c2cc(N3CCOC(c4ccccc4)C3)nc(N3CCOCC3)n2)c(C(F)(F)F)n1` (configuration not stated), the IC50 on PIK3CA (human) [2] was 15 nM; at PIK3CB (Human) [3], 27 nM; against PIK3CD (Human) [4], 110 nM; against PIK3CG (human), 170 nM; against PIK3CA (human) [5], above 10000 nM; in test [6], 2390 nM and 1370 nM. Further, the IC50 was above 10000 nM at PIK3CB (Human) [7] and 105 nM against PIK3CD (Human) [1].

`CC[C@@H]1[C@@H](c2cccc(OC)c2)OC(=O)N1c1cc(-c2cnc(N)nc2C(F)(F)F)nc(N2CCOCC2)n1` came in with a concentration for half-maximal inhibition (IC50) against PIK3CG (human) of 7000 nM. This counts as single-digit micromolar.

In general, IC50 refers to the point on the concentration scale where inhibition reaches its midpoint. Low values mean greater potency, high ones weaker potency.

The values above are taken from the Kinase Knowledgebase extract (Sharma et al. 2016).
